Source: ChEMBL document CHEMBL4392850, “Cu-mediated synthesis of differentially substituted diazepines as AChE inhibitors; validation through molecular docking and Lipinski's filter to develop novel anti-neurodegenerative drugs” (Bioorg Med Chem Lett, 2019)

Tests used:
Acetylcholinesterase [1] = biological target: T1, Acetylcholinesterase (Homo sapiens, UniProt P22303); experiment: Inhibition of AChE in erythrocytes (unknown origin) pre-incubated for 20 mins before acetylthiocholine substrate addition and measured over 30 mins by DTNB dye based spectrophotometry; assay type: cell-based
T1 sequence (P22303 whole entry): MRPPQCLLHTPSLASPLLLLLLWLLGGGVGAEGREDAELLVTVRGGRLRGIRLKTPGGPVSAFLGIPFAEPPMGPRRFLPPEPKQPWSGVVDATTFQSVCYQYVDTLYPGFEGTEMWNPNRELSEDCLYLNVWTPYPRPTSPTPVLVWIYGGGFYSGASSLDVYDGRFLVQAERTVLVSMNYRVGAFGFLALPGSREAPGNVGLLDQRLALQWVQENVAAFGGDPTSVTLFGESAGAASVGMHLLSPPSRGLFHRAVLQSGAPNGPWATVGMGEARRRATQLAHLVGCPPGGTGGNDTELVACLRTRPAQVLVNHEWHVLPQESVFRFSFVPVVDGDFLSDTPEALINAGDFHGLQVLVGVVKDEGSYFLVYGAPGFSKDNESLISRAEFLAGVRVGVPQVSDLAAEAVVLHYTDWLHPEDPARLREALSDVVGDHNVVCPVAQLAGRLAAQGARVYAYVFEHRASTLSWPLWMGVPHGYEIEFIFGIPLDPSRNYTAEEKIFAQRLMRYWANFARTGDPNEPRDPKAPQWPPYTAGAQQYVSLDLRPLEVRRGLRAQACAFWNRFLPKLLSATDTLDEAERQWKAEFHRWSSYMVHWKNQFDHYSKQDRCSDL

[2] = Antioxidant activity assessed as DPPH radical scavenging activity incubated for 15 to 20 mins by UV-visible spectrometry relative to untreated control; assay type: functional
[3] = Antioxidant activity assessed as DPPH radical scavenging activity incubated for 15 to 20 mins by UV-visible spectrometry; assay type: functional
Acetylcholinesterase [4] = biological target: T1, Acetylcholinesterase; experiment: Inhibition of AChE in erythrocytes (unknown origin) pre-incubated for 20 mins before acetylthiocholine substrate addition and measured over 30 mins by DTNB dye based spectrophotometry relative to untreated control; assay type: cell-based

SMILES	inhibition (Acetylcholinesterase [1])	inhibition [2]	IC50 [3]	IC50 (Acetylcholinesterase [1])	inhibition (Acetylcholinesterase [4])
c1ccc(-c2nnn3c2C2c4ccccc4CCN2Cc2cc4c(cc2-3)OCO4)cc1 (stereo unspecified)	Dose-dependent effect	–	–	–	–
O=C1O[C@H]([C@@H](O)CO)C(O)=C1O [ASCORBIC ACID]	–	80.2%	1250 nM	–	–
c1ccc(-c2nnn3c2C2CCCCN2Cc2cc4c(cc2-3)OCO4)cc1 (stereo unspecified)	Dose-dependent effect	92.3%	94.8 nM	–	–
c1ccc(-c2nnn3c2C2CCCN2Cc2cc4c(cc2-3)OCO4)cc1 (stereo unspecified)	Dose-dependent effect	–	–	–	–
Cn1c(=O)c2c(ncn2C)n(C)c1=O	Dose-dependent effect	–	–	–	–
Fc1ccc(-c2nnn3c2C2c4ccccc4CCN2Cc2ccccc2-3)cc1 (stereo unspecified)	Dose-dependent effect	–	–	–	–
Brc1ccc(-c2nnn3c2C2c4ccccc4CCN2Cc2ccccc2-3)cc1 (stereo unspecified)	Dose-dependent effect	96.1%	86.2 nM	250 nM	< 95%
Cc1ccc(-c2nnn3c2C2c4ccccc4CCN2Cc2ccccc2-3)cc1 (stereo unspecified)	Dose-dependent effect	–	–	–	–
c1ccc(-c2nnn3c2C2c4ccccc4CCN2Cc2ccccc2-3)cc1 (stereo unspecified)	Dose-dependent effect	–	–	–	–
